Holding throughout (test): SILAC RP-ABPP
Format in all cases: cell-based

In experiment [1] the target is T1, ALDH1B1 Aldehyde dehydrogenase X (P30837) (Homo sapiens, UniProt P30837).
T1 construct: shared by both the endogenous and recombinant forms of these proteins; endogenous in cells; host or cells: HEK293T and MDA-MB-231
T1 sequence (P30837 18-517): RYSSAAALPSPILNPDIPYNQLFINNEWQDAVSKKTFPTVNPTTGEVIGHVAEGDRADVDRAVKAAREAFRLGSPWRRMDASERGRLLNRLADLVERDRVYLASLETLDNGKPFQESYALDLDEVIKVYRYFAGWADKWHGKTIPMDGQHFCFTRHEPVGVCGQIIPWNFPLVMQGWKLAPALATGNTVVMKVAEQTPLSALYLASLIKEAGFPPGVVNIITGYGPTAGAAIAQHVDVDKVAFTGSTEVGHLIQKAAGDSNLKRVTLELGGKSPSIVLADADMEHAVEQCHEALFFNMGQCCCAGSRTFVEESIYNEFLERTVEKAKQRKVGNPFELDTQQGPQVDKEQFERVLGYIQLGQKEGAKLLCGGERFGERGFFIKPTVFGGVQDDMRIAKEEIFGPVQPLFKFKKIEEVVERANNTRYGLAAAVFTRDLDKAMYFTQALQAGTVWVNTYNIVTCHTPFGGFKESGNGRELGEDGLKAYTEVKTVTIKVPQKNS
To be noted: SILAC H/L, HEK293T.

The target of experiment [2] is T2, APLP2 Amyloidlike protein 2 (Q06481) (Homo sapiens, UniProt Q06481).
T2 construct: shared by both the endogenous and recombinant forms of these proteins; endogenous in cells; host or cells: HEK293T and MDA-MB-231
T2 sequence (Q06481 32-763): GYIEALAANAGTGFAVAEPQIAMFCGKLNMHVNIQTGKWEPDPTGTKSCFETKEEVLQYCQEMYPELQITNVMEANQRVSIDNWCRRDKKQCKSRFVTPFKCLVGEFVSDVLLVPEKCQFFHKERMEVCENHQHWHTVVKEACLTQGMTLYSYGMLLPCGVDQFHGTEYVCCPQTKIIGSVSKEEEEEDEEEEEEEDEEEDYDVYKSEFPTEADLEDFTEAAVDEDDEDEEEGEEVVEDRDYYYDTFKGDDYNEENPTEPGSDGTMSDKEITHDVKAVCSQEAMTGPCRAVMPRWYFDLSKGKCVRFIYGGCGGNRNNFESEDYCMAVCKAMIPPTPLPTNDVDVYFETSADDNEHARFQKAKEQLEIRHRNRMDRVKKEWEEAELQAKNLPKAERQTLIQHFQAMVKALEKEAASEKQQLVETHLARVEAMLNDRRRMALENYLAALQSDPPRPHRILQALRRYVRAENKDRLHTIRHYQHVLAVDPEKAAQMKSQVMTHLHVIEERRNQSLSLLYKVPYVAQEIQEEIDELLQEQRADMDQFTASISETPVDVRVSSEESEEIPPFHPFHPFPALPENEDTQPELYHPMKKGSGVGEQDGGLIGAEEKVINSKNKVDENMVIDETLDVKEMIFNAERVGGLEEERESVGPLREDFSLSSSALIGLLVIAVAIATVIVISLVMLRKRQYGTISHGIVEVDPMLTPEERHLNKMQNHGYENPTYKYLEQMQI
Particulars: SILAC H/L.

Experiment [3] addresses T3, KEAP1 Kelchlike ECHassociated protein 1 (Q14145) (Homo sapiens, UniProt Q14145).
T3 construct: shared by both the endogenous and recombinant forms of these proteins; endogenous in cells; host or cells: HEK293T and MDA-MB-231
To be noted: SILAC H/L.

Experiment [4] deals with T4, LGALS3BP Galectin3binding protein (Q08380) (Homo sapiens, UniProt Q08380).
T4 construct: In Situ Labelling of Cells with Hydrazine Probes for MS Experiments; endogenous in cells
T4 sequence (Q08380 19-585): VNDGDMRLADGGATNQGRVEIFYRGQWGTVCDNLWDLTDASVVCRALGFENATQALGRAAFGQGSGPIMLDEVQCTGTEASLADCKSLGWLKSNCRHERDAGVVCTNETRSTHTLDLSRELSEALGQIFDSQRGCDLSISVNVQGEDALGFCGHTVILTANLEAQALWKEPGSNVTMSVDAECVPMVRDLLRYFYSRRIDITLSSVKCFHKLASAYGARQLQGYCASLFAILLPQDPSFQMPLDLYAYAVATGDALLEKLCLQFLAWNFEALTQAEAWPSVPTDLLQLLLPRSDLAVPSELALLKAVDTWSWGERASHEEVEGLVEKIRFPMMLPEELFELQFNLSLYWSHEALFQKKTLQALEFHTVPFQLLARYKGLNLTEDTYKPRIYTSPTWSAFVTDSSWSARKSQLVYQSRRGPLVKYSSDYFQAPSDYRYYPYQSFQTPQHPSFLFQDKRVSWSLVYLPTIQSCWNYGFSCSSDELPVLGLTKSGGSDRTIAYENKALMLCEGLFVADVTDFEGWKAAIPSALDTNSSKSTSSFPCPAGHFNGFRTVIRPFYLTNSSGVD
Particulars: SILAC H/L, MDA-MB-231.

This note sets out measurements from patent US11226337B2, “Chemoproteomic profiling of protein electrophilic and oxidative post-translational modifications” (Zenagem, LLC, priority 2017, dated 2022).

T3 sequence (Q14145 whole entry): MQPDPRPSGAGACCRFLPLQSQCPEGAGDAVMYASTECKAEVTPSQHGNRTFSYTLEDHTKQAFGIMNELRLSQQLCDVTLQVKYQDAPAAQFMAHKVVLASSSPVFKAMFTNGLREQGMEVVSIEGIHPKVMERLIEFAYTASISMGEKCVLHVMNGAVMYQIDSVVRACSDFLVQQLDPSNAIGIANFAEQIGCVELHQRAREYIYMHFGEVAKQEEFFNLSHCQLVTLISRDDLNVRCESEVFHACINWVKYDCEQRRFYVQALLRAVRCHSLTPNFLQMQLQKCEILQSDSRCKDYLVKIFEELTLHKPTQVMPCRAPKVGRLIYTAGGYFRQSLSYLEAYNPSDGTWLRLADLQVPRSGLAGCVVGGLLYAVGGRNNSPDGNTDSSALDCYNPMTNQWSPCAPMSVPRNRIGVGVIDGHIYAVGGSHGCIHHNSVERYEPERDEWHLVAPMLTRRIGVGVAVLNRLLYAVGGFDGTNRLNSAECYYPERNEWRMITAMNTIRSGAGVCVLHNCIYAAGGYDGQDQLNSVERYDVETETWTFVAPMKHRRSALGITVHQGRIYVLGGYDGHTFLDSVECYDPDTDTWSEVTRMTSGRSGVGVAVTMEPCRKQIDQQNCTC

As to `C#CCNN.Cl` [probe 1, prop-2-yn-1-ylhydrazine hydrochloride], the enrichment ratioavg in experiment [1] (probe 1 3 mM 0.5 h vs probe 3) is on record as 6; in experiment [2] (probe 1 3 mM 0.5 h vs probe 3, MDA-MB-231) it was 19; in experiment [3] (probe 1 3 mM 0.5 h vs probe 3, HEK293T), 17; in experiment [4] (probe 1 3 mM 0.5 h vs probe 3) it was 7. In addition, the competition ratioavg stood at 3 in experiment [1] (probe 1 vs probe 1+10x probe 3); 7 in experiment [2] (probe 1 vs probe 1+10x probe 3, MDA-MB-231); 20 in experiment [3] (probe 1 vs probe 1+10x probe 3, HEK293T); 3 in experiment [4] (probe 1 vs probe 1+10x probe 3).
In the case of `C#CCCNC(=O)c1ccc(NN)cc1.Cl` [probe 2, N-(but-3-yn-1-yl)-4-hydrazinylbenzamide hydrochloride], the enrichment ratioavg in experiment [1] (probe 2 1 mM 0.5 h vs probe 4) worked out at 11; in experiment [2] (probe 2 1 mM 0.5 h vs probe 4, single experiment, cell line not given) it was 20; in experiment [3] (probe 2 1 mM 0.5 h vs probe 4, MDA-MB-231), 12; in experiment [4] (probe 2 1 mM 0.5 h vs probe 4), 7. Besides, the competition ratioavg in experiment [1] (probe 2 vs probe 2+10x probe 4) is on record as 5; in experiment [3] (probe 2 vs probe 2+10x probe 4, MDA-MB-231), 3; in experiment [4] (probe 2 vs probe 2+10x probe 4) it was 3.
